According to patent US20120135997A1, “PHARMACEUTICAL COMPOSITION COMPRISING A LACTAM OR BENZENESULFONAMIDE COMPOUND” (Shionogi & Co., Ltd., priority 2009, published 2012):

Columns and labels:
Test in all cases: CYP inhibition test, pooled human liver microsomes
Format in all cases: in vitro ADME
[1] = target: CYP3A4 (Homo sapiens, UniProt P08684); set-up: from tissue; host or cells: pooled human liver microsomes; conditions: hydroxylation of terfenadine
Description: Using commercially available pooled human liver microsomes and employing typical substrate metabolic reactions of 5 major species of human CYP enzymes (CYP1A2, 2C9, 2C19, 2D6, 3A4), namely, O-deethylation of 7-ethoxyresorufin (CYP1A2), methyl-hydroxylation of tolbutamide (CYP2C9), 4′-hydroxylation of mephenyloin (CYP2C19), O-demethylation of dextromethorphan (CYP2D6), and hydroxylation of terfenadine (CYP3A4), as indicator reactions, the degree of inhibition of each metabolite production by each test compound is evaluated. […] Centrifugation is performed for 15 minutes at 3000 rpm, and each metabolite in the centrifuged supernatant is quantified. Namely, resorufin (CYP1A2 metabolite) is quantified with a fluorescence multilabel counter, and hydroxylated tolbutamide (CYP2C9 metabolite), 4′-hydroxylated mephenyloin (CYP2C19 metabolite), dextrorphan (CYP2D6 metabolite) and alcoholized terfenadine (CYP3A4 metabolite) are quantified with LC/MS/MS. […] The remaining activity (%) at each concentration after adding the test compound solution is calculated, and the […] is calculated from the concentration and inhibition percentage by inverse estimation with the logistic model.

[2] = target: T1, CYP2C19 (Homo sapiens, UniProt P33261); conditions: 4′-hydroxylation of mephenyloin
T1 construct: from tissue; host or cells: pooled human liver microsomes
T1 sequence (P33261 whole entry): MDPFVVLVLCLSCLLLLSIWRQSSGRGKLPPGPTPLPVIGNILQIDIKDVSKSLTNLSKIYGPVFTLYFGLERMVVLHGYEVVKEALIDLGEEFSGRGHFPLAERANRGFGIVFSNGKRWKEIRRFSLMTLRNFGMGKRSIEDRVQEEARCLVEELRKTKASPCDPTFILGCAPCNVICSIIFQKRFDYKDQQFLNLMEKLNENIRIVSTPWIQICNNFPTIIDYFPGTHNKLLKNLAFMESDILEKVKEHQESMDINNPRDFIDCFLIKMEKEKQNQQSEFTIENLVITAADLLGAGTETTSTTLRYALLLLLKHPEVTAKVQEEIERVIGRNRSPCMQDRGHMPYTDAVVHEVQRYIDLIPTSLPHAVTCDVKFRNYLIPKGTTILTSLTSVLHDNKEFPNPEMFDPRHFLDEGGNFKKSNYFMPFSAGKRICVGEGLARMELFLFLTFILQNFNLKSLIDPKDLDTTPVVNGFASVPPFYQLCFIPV
Description: (§1) Using commercially available pooled human liver microsomes and employing typical substrate metabolic reactions of 5 major species of human CYP enzymes (CYP1A2, 2C9, 2C19, 2D6, 3A4), namely, O-deethylation of 7-ethoxyresorufin (CYP1A2), methyl-hydroxylation of tolbutamide (CYP2C9), 4′-hydroxylation of mephenyloin (CYP2C19), O-demethylation of dextromethorphan (CYP2D6), and hydroxylation of terfenadine (CYP3A4), as indicator reactions, the degree of inhibition of each metabolite production by each test compound is evaluated. The reaction conditions are as follows: Substrate: 0.5 μmol/L of ethoxyresorufin (CYP1A2), 100 μmol/L of tolbutamide (CYP2C9), 50 μmol/L of S-mephenyloin (CYP2C19), 5 μmol/L of dextromethorphan (CYP2D6), 1 μmol/L of terfenadine (CYP3A4); Reaction time period: 15 minutes; Reaction temperature: 37° C.; Enzyme: pooled human liver microsomes 0.2 mg protein/mL; Test compound concentration: 1, 5, 10 and 20 μmol/L (four different concentrations). As a reaction solution, the respective five substrates, human liver microsomes, and test compound in the aforementioned amounts are added to a 50 mM Hepes buffer in a 96-well plate. NADPH, which is a coenzyme, is added thereto to start the indicator metabolic reaction. The reaction proceeds for 15 minutes at 37° C., and the solution of methanol/acetonitrile=1/1 (v/v) is added so as to terminate the reaction. Centrifugation is performed for 15 minutes at 3000 rpm, and each metabolite in the centrifuged supernatant is quantified. Namely, resorufin (CYP1A2 metabolite) is quantified with a fluorescence multilabel counter, and hydroxylated tolbutamide (CYP2C9 metabolite), 4′-hydroxylated mephenyloin (CYP2C19 metabolite), dextrorphan (CYP2D6 metabolite) and alcoholized terfenadine (CYP3A4 metabolite) are quantified with LC/MS/MS. Control (100%) is prepared by adding only DMSO, a solvent to dissolve the test compound, to the reaction system. The remaining activity (%) at each concentration after adding the test compound solution is calculated, and the […] is calculated from the concentration and inhibition percentage by inverse estimation with the logistic model.

[3] = target: T2, CYP2C9 (Homo sapiens, UniProt P11712); conditions: methyl-hydroxylation of tolbutamide
T2 construct: from tissue; host or cells: pooled human liver microsomes
T2 sequence (P11712 whole entry): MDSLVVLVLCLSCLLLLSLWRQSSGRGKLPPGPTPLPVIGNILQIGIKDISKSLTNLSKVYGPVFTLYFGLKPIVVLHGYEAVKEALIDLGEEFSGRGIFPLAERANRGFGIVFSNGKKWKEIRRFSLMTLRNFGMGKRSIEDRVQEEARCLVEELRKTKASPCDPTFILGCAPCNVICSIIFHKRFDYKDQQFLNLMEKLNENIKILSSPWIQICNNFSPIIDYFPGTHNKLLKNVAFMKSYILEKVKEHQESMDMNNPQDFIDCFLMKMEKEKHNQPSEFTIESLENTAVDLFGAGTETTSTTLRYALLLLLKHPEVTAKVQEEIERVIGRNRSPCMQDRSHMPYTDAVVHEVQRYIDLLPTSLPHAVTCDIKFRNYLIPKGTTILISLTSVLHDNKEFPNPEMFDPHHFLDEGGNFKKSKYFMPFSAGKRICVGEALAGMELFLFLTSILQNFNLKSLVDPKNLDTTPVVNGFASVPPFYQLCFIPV
Description: as §1

[4] = target: T3, CYP1A2 (Homo sapiens, UniProt P05177); conditions: O-deethylation of 7-ethoxyresorufin
T3 construct: from tissue; host or cells: pooled human liver microsomes
T3 sequence (P05177 1-516): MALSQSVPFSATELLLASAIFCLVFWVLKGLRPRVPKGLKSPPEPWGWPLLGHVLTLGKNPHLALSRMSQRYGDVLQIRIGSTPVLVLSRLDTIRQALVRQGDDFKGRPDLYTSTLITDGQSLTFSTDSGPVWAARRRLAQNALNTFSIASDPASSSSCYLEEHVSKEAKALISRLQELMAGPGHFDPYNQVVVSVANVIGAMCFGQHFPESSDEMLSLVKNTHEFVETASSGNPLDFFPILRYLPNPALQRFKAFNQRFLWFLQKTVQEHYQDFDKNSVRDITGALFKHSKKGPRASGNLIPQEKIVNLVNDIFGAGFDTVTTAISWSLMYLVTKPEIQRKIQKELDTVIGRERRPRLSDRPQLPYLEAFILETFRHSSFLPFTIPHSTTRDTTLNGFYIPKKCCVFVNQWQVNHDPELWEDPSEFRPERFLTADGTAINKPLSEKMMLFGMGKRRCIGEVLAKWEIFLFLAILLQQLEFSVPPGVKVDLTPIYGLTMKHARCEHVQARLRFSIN
Description: as §1

[5] = target: T4, CYP2D6 (Homo sapiens, UniProt P10635); conditions: O-demethylation of dextromethorphan
T4 construct: from tissue; host or cells: pooled human liver microsomes
T4 sequence (P10635 whole entry): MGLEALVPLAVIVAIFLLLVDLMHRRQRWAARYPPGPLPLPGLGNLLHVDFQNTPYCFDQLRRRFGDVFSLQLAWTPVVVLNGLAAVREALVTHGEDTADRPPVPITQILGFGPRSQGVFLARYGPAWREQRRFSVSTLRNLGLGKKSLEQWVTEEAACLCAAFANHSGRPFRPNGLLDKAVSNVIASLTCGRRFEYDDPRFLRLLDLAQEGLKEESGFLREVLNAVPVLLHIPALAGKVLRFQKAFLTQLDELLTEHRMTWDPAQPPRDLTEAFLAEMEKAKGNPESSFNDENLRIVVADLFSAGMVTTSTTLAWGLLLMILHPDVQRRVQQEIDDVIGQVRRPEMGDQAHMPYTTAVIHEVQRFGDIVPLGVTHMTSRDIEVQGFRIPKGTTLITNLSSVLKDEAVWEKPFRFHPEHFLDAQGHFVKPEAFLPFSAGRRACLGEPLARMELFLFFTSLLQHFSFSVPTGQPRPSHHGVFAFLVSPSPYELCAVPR
Description: as §1

Chain of CYP3A4 (P08684 whole entry): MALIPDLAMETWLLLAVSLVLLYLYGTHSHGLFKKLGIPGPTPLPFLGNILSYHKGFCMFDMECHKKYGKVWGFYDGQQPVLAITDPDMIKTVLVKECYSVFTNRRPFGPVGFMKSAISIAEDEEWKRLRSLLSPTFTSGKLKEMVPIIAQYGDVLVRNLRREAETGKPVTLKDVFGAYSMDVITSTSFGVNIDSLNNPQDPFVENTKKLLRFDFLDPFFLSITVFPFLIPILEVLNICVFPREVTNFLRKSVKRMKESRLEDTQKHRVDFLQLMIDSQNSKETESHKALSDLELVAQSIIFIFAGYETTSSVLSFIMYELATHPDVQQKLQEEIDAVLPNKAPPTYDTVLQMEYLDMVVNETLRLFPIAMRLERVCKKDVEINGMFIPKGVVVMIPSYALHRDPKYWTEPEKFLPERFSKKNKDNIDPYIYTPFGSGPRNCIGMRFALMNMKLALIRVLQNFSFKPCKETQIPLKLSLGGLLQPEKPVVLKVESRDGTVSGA

- IC50 [1]: > 10 µM
- IC50 [2]: > 10 µM
- IC50 [3]: > 10 µM
- IC50 [4]: > 10 µM
- IC50 [5]: > 10 µM
Structure (SMILES): COc1cc(NS(=O)(=O)c2ccccc2CO)ccc1-n1cnc(C)c1 [Compound 121]
